According to ChEMBL document CHEMBL1155925, “Synthesis and evaluation of acylguanidine FXa inhibitors” (Bioorg Med Chem Lett, 2008):

Legend:
Plasma = assay: Anticoagulant activity in human plasma assessed as concentration required to double prothrombin-based clotting time; assay type: functional
Coagulation factor X = Coagulation factor X (Homo sapiens, UniProt P00742); assay: Inhibition of human factor 10a
Sequence of Coagulation factor X (P00742 41-179 limits assumed): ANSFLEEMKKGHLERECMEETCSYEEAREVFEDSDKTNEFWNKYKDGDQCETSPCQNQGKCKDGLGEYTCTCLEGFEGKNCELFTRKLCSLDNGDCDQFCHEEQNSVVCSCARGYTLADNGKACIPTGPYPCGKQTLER
Sequence of Coagulation factor X (P00742 235-488 limits assumed): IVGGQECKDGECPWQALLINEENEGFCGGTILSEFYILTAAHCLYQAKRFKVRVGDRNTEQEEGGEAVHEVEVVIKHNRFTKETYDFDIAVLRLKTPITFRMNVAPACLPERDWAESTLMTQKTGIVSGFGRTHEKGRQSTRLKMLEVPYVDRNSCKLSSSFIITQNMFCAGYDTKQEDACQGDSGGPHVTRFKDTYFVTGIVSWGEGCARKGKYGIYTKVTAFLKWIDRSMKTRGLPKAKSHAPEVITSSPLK

Row | SMILES | Activity (Plasma) | IC50 (Coagulation factor X)
1 | Cc1cc2cc(N/C(=N\C(=O)C3CCN(C(=O)c4ccccc4)CC3)N[C@H]3CCCCN(CC(=O)N4CCCC4)C3=O)ccc2o1 | 7.5 µM | 10 nM
2 | Cc1cccc(NC(=N[C@H]2CCCCN(CC(=O)N3CCCC3)C2=O)NC(=O)c2cc(Cl)cc(Cl)c2)c1 | – | 835 nM
3 | COc1ccc(NC(=N[C@H]2CCCCN(CC(=O)N3CCCC3)C2=O)NC(=O)c2ccc(Cl)cc2)cc1 | – | 294 nM
4 | COc1ccc(N/C(=N\C(=O)c2ccc(F)cc2)N[C@H]2CCCCN(CC(=O)N3CCCC3)C2=O)cc1 | – | 368 nM
5 | Cc1cccc(NC(=N[C@H]2CCCCN(CC(=O)N3CCCC3)C2=O)NC(=O)c2cc(F)cc(F)c2)c1 | – | 396 nM
6 | COc1cccc(C(=O)NC(=N[C@H]2CCCCN(CC(=O)N3CCCC3)C2=O)Nc2cccc(C)c2)c1 | – | 276 nM
7 | Cc1cccc(NC(=N[C@H]2CCCCN(CC(=O)N3CCCC3)C2=O)NC(=O)c2cccc(F)c2)c1 | – | 373 nM
8 | COc1ccc(NC(=N[C@H]2CCCCN(CC(=O)N3CCCC3)C2=O)NC(=O)c2cc(OC)cc(OC)c2)cc1 | – | 872 nM
9 | Cc1cc2cc(N/C(=N\C(=O)c3ccccc3)N[C@H]3CCCCN(CC(=O)N4CCCC4)C3=O)ccc2o1 | 48 µM | –
10 | Cc1cccc(NC(=N[C@H]2CCCCN(CC(=O)N3CCCC3)C2=O)NC(=O)c2ccc(N(C)C)cc2)c1 | – | 517 nM
11 | COc1ccc(N/C(=N\C(=O)c2ccc(OC)c(OC)c2)N[C@H]2CCCCN(CC(=O)N3CCCC3)C2=O)cc1 | – | 494 nM
12 | COc1ccc(NC(=N[C@H]2CCCCN(CC(=O)N3CCCC3)C2=O)NC(=O)c2cccc(F)c2)cc1 | – | 256 nM
13 | COc1ccc(NC(=N[C@H]2CCCCN(CC(=O)N3CCCC3)C2=O)NC(=O)c2cc(Cl)cc(Cl)c2)cc1 | – | 546 nM
14 | COc1ccc(NC(=N[C@H]2CCCCN(CC(=O)N3CCCC3)C2=O)NC(=O)c2cc(F)cc(F)c2)cc1 | – | 208 nM
15 | Cc1cccc(N/C(=N\C(=O)c2ccc(Cl)cc2)N[C@H]2CCCCN(CC(=O)N3CCCC3)C2=O)c1 | – | 198 nM
16 | Cc1cccc(NC(=N[C@H]2CCCCN(CC(=O)N3CCCC3)C2=O)NC(=O)c2ccc(F)c(F)c2)c1 | – | 271 nM
17 | COc1cc(OC)cc(C(=O)/N=C(\Nc2cccc(C)c2)N[C@H]2CCCCN(CC(=O)N3CCCC3)C2=O)c1 | – | 1160 nM
18 | COc1ccc(C(=O)NC(=N[C@H]2CCCCN(CC(=O)N3CCCC3)C2=O)Nc2cccc(C)c2)cc1OC | – | 400 nM

Row | SMILES | Activity (Plasma) | IC50 (Coagulation factor X)
19 | Cc1cccc(NC(=N[C@H]2CCCCN(CC(=O)N3CCCC3)C2=O)NC(=O)c2cccc(Cl)c2)c1 | – | 371 nM
20 | COc1ccc(NC(=N[C@H]2CCCCN(CC(=O)N3CCCC3)C2=O)NC(=O)c2ccc(F)c(F)c2)cc1 | – | 272 nM
21 | Cc1cccc(N/C(=N\C(=O)C2CCN(C(=O)c3ccccc3)CC2)N[C@H]2CCCCN(CC(=O)N3CCCC3)C2=O)c1 | >50 µM | 1070 nM
22 | Cc1cccc(N/C(=N\C(=O)c2ccno2)N[C@H]2CCCCN(CC(=O)N3CCCC3)C2=O)c1 | 50 µM | 628 nM
23 | COc1ccc(N/C(=N\C(=O)c2ccc(OC)cc2)N[C@H]2CCCCN(CC(=O)N3CCCC3)C2=O)cc1 | – | 227 nM
24 | COc1ccc(NC(=N[C@H]2CCCCN(CC(=O)N3CCCC3)C2=O)NC(=O)c2ccccc2)cc1 | – | 246 nM
25 | COc1ccc(N/C(=N\C(=O)c2sc(C)nc2C)N[C@H]2CCCCN(CC(=O)N3CCCC3)C2=O)cc1 | >50 µM | 386 nM
26 | COc1ccc(N/C(=N\C(=O)c2ccno2)N[C@H]2CCCCN(CC(=O)N3CCCC3)C2=O)cc1 | 45 µM | 380 nM
27 | COc1ccc(NC(=N[C@H]2CCCCN(CC(=O)N3CCCC3)C2=O)NC(=O)c2ccc(N(C)C)cc2)cc1 | – | 403 nM
28 | Cc1cccc(N/C(=N\C(=O)c2ccc(F)cc2)N[C@H]2CCCCN(CC(=O)N3CCCC3)C2=O)c1 | – | 222 nM
29 | Cc1cc2cc(N/C(=N\C(=O)c3ccno3)N[C@H]3CCCCN(CC(=O)N4CCCC4)C3=O)ccc2o1 | 17.7 µM | 14 nM
30 | Cc1cccc(NC(=N[C@H]2CCCCN(CC(=O)N3CCCC3)C2=O)NC(=O)c2ccccc2)c1 | – | 245 nM
31 | Cc1cccc(N/C(=N\C(=O)c2sc(C)nc2C)N[C@H]2CCCCN(CC(=O)N3CCCC3)C2=O)c1 | >50 µM | 462 nM
32 | COc1ccc(C(=O)NC(=N[C@H]2CCCCN(CC(=O)N3CCCC3)C2=O)Nc2cccc(C)c2)cc1 | – | 709 nM
33 | COc1ccc(N/C(=N\C(=O)C2CCN(C(=O)c3ccccc3)CC2)N[C@H]2CCCCN(CC(=O)N3CCCC3)C2=O)cc1 | 48 µM | 506 nM
34 | COc1ccc(NC(=N[C@H]2CCCCN(CC(=O)N3CCCC3)C2=O)NC(=O)c2cccc(Cl)c2)cc1 | – | 267 nM
35 | Cc1cc2cc(N/C(=N\C(=O)c3sc(C)nc3C)N[C@H]3CCCCN(CC(=O)N4CCCC4)C3=O)ccc2o1 | 42 µM | 17 nM
36 | COc1ccc(N/C(=N\C(=O)c2cccc(OC)c2)N[C@H]2CCCCN(CC(=O)N3CCCC3)C2=O)cc1 | – | 193 nM
